From patent EP0021678B1, “1-Sulpho-2-oxoazetidine derivatives, their production and pharmaceutical compositions thereof” (Takeda Chemical Industries, Ltd., priority 1979, dated 1981)
Like-named read-outs stand apart in the source and are kept apart here.

How the values were obtained:
Assay in all cases: Anti-bacterial test, minimum inhibitory concentration on agar
Assay type in all cases: cell-based
[1] = system: Acinetobacter calcoaceticus IFO 13006; conditions: Acinetobacter calcoaceticus IFO 13006, medium TSA; for MIC: IFO13006, read-out: Minimum inhibitory concentration
In short: (§1)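 Read-out is the minimum inhibitory concentration on solid medium. Plates used Trypticase soy agar, with a blood-containing version (B-TSA) also employed.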

[2] = system: Bordetella bronchiseptica Sagami; conditions: Bordetella bronchiseptica Sagami, medium B—TSA; for MIC: read-out: Minimum inhibitory concentration
In short: as §1

[3] = system: Candida albicans TA; conditions: Candida albicans TA, medium TSA; for MIC: read-out: Minimum inhibitory concentration
In short: as §1

[4] = system: Citrobacter freundii IFO 12681; conditions: Citrobacter freundii IFO 12681, medium TSA; for MIC: IFO12681, read-out: Minimum inhibitory concentration
In short: as §1

[5] = system: Corynebacterium diphtheriae Toronto; conditions: Corynebacterium diphtheriae Toronto, medium B—TSA; for MIC: read-out: Minimum inhibitory concentration
In short: as §1

[6] = system: Enterobacter cloacae IFO 12937; conditions: Enterobacter cloacae IFO 12937, medium TSA; for MIC: IFO12937, read-out: Minimum inhibitory concentration
In short: as §1

[7] = system: Escherichia coli NIHJ JC—2; conditions: Escherichia coli NIHJ JC—2, medium TSA; for MIC: read-out: Minimum inhibitory concentration
In short: as §1

[8] = system: Escherichia coli O—111; conditions: medium TSA
In short: as §1

[9] = system: Escherichia coli T-7; conditions: for MIC: T7, medium TSA
In short: as §1

[10] = system: Klebsiella pneumoniae DT; conditions: Klebsiella pneumoniae DT, medium TSA; for MIC: read-out: Minimum inhibitory concentration
In short: as §1

[11] = system: Proteus mirabilis IFO 3849; conditions: Proteus mirabilis IFO 3849, medium TSA; for MIC: IFO3849, read-out: Minimum inhibitory concentration
In short: as §1

[12] = system: Proteus morganii IFO 3168; conditions: Proteus morganii IFO 3168, medium TSA; for MIC: Morganella morganii, IFO3168, read-out: Minimum inhibitory concentration
In short: as §1

[13] = system: Proteus vulgaris IFO 3988; conditions: Proteus vulgaris IFO 3988, medium TSA; for MIC: IFO3988, read-out: Minimum inhibitory concentration
In short: as §1

[14] = system: Pseudomonas aeruginosa IFO 3455
In short: as §1

[15] = system: Pseudomonas aeruginosa U 31; conditions: Pseudomonas aeruginosa U 31, medium TSA; for MIC: U31, read-out: Minimum inhibitory concentration
In short: as §1

[16] = system: Serratia marcescens IFO 12648; conditions: Serratia marcescens IFO 12648, medium TSA; for MIC: IFO12648, read-out: Minimum inhibitory concentration
In short: as §1

[17] = system: Staphylococcus aureus 1840; conditions: Staphylococcus aureus 1840, medium TSA; for MIC: read-out: Minimum inhibitory concentration
In short: as §1

[18] = system: Staphylococcus aureus 308A—1; conditions: for MIC: read-out: Minimum inhibitory concentration
In short: as §1

[19] = system: Staphylococcus aureus FDA209P; conditions: Staphylococcus aureus FDA209P; for MIC: Staphylococcus aureus, FDA209P, read-out: Minimum inhibitory concentration
In short: as §1

[20] = system: Streptococcus faecium IFO 3128; conditions: Streptococcus faecium IFO 3128, medium B—TSA; for MIC: Enterococcus faecium, IFO3128, read-out: Minimum inhibitory concentration
In short: as §1

[21] = system: Streptococcus mitis America; conditions: for MIC: read-out: Minimum inhibitory concentration
In short: as §1

[22] = system: Streptococcus pneumoniae Type I; conditions: Streptococcus pneumoniae Type I, medium B—TSA; for MIC: read-out: Minimum inhibitory concentration
In short: as §1

[23] = system: Streptococcus pyogenes E—14; conditions: Streptococcus pyogenes E—14, medium B—TSA; for MIC: read-out: Minimum inhibitory concentration
In short: as §1

[24] = system: Streptococcus pyogenes S—8; conditions: Streptococcus pyogenes S—8, medium B—TSA; for MIC: read-out: Minimum inhibitory concentration
In short: as §1

[25] = Staphylococcus aureus 308A—1, medium TSA
[26] = Streptococcus mitis America, medium B—TSA

Structure (SMILES): O=C(NC1CN(S(=O)(=O)O)C1=O)[C@H](NC(=O)N1CCN(N=Cc2ccco2)C1=O)c1ccccc1 (stereo partly drawn) [Compound I, Sodium 3-[D-2-[(2-oxo-3-furfurylideneaminoimidazolidin-1-yl)-carboxamido]-2-phenylacetamido]-2-oxoazetidine-1-sulphonate]
- MIC [1]: 25 µg/mL
- MIC [2]: > 100 µg/mL
- MIC [3]: > 100 µg/mL
- MIC [4]: 6.25 µg/mL
- MIC [5]: 0.78 µg/mL
- MIC [6]: 25 µg/mL
- MIC [7]: 1.56 µg/mL
- MIC [8]: 3.13 µg/mL
- MIC [9]: > 100 µg/mL
- MIC [10]: 0.2 µg/mL
- MIC [11]: 1.56 µg/mL
- MIC [12]: 12.5 µg/mL
- MIC [13]: 0.2 µg/mL
- MIC ([14]; Pseudomonas aeruginosa, IFO3455, read-out: Minimum inhibitory concentration): 3.13 µg/mL
- MIC [15]: > 100 µg/mL
- MIC [16]: 1.56 µg/mL
- MIC [17]: 50 µg/mL
- MIC ([18]; Staphylococcus aureus): 3.13 µg/mL
- MIC ([19]; medium B—TSA): 6.25 µg/mL
- MIC ([19]; medium TSA): 6.25 µg/mL
- MIC [20]: > 100 µg/mL
- MIC ([21]; Streptococcus mitis): 3.13 µg/mL
- MIC [22]: 1.56 µg/mL
- MIC [23]: 0.39 µg/mL
- MIC [24]: 0.78 µg/mL

Structure (SMILES): O=C(NC1CN(S(=O)(=O)O)C1=O)[C@H](NC(=O)N1CCN(N=Cc2cccs2)C1=O)c1ccccc1 (stereo partly drawn) [Compound K, Sodium 3-[D-2-[[2-oxo-3-(thiophen-2-aidoimino)-imidazolidin-1-yl]-carboxamido]-2-phenylacetamido]-2-oxoazetidine-1-sulphonate]
- MIC [1]: 50 µg/mL
- MIC [2]: > 100 µg/mL
- MIC [3]: > 100 µg/mL
- MIC [4]: 1.56 µg/mL
- MIC [5]: 3.13 µg/mL
- MIC [6]: 12.5 µg/mL
- MIC [7]: 1.56 µg/mL
- MIC [8]: 0.39 µg/mL
- MIC [9]: > 100 µg/mL
- MIC [10]: 0.39 µg/mL
- MIC [11]: 1.56 µg/mL
- MIC [12]: 12.5 µg/mL
- MIC [13]: 0.39 µg/mL
- MIC ([14]; IFO3455, Pseudomonas aeruginosa IFO 3455, medium TSA, read-out: Minimum inhibitory concentration): 3.13 µg/mL
- MIC [15]: > 100 µg/mL
- MIC [16]: 1.56 µg/mL
- MIC [17]: 50 µg/mL
- MIC [18, 25]: 3.13 µg/mL
- MIC ([19]; medium B—TSA): 6.25 µg/mL
- MIC ([19]; medium TSA): 6.25 µg/mL
- MIC [20]: > 100 µg/mL
- MIC [21, 26]: 1.56 µg/mL
- MIC [22]: 1.56 µg/mL
- MIC [23]: 0.78 µg/mL
- MIC [24]: 1.56 µg/mL

Structure (SMILES): O=C(NC1CN(S(=O)(=O)[O-])C1=O)C(NC(=O)N1CCN(N=Cc2ccco2)C1=O)c1cccs1.[Na+] (stereo not drawn) [Compound L, Sodium 3-[2-[(2-oxo-3-furfurylideneaminoimidazolidin-1-yl)-carboxamido]-2-thienylacetamido]-2-oxoazetidine-1-sulphonate]
- Minimum inhibitory concentration [1]: 50 µg/mL
- Minimum inhibitory concentration [2]: >100 µg/mL
- Minimum inhibitory concentration [3]: >100 µg/mL
- Minimum inhibitory concentration [4]: 1.56 µg/mL
- Minimum inhibitory concentration [5]: 1.56 µg/mL
- Minimum inhibitory concentration [6]: 25 µg/mL
- Minimum inhibitory concentration [7]: 1.56 µg/mL
- Minimum inhibitory concentration [8]: <0.1 µg/mL
- Minimum inhibitory concentration ([9]; medium TSA): >100 µg/mL
- Minimum inhibitory concentration [10]: <0.1 µg/mL
- Minimum inhibitory concentration [11]: 0.78 µg/mL
- Minimum inhibitory concentration [12]: 12.5 µg/mL
- Minimum inhibitory concentration [13]: 0.2 µg/mL
- Minimum inhibitory concentration ([14]; Pseudomonas aeruginosa IFO 3455, medium TSA): 3.13 µg/mL
- Minimum inhibitory concentration [15]: >100 µg/mL
- Minimum inhibitory concentration [16]: 1.56 µg/mL
- Minimum inhibitory concentration [17]: 25 µg/mL
- Minimum inhibitory concentration [18, 25]: 3.13 µg/mL
- Minimum inhibitory concentration ([19]; medium B—TSA): 6.25 µg/mL
- Minimum inhibitory concentration ([19]; medium TSA): 6.25 µg/mL
- Minimum inhibitory concentration [20]: >100 µg/mL
- Minimum inhibitory concentration [21, 26]: 6.25 µg/mL
- Minimum inhibitory concentration [22]: 1.56 µg/mL
- Minimum inhibitory concentration [23]: 0.78 µg/mL
- Minimum inhibitory concentration [24]: 0.78 µg/mL
